In patent US7977388B2, “Quinone derivative 2,3-dimethoxy-5-methyl-6-(10-hydroxydecyl)-1,4-benzoquinone for the treatment of muscular dystrophies” (Santhera Pharmaceuticals (Schweiz) AG, priority 2005, dated 2011):

Test system: dystrophin-deficient mdx mouse
Experiment: Voluntary daily running performance of idebenone-treated mdx mice
Assay type: in vivo
Method: The effect of idebenone on the running performance was tested in the dystrophin-deficient mdx mouse, a validated animal model for DMD. Starting at day 21 of age, mdx mice were treated with idebenone. Their daily running performance was compared to mdx mice treated with vehicle only and to non-treated wild-type mice. For this, idebenone was dissolved in 0.5% w/v carboxymethylcellulose (CMC) to a final concentration of 20 mg/ml. Idebenone (20 mg/ml in 0.5% CMC) was applied once a day by gavage feeding. The final dose of idebenone at all time points was 200 mg/kg body weight. Control mice received the same amount of vehicle only. […] Idebenone treated mdx mice performed clearly better compared to the vehicle-treated mdx mice from the start of the analysis.

COC1=C(OC)C(=O)C(CCCCCCCCCCO)=C(C)C1=O [idebenone, 2,3-dimethoxy-5-methyl-6-(10-hydroxydecyl)-1,4-benzoquinone]
Total daily running distance (mdx mice treated daily with idebenone vs vehicle-treated mdx and wild-type mice, distance in meters): clearly increased | Daily running performance (mdx mice, 200 mg/kg body weight once a day by gavage in 0.5% CMC from day 21 of age, analysed 29-84 days of age, vs vehicle-treated mdx mice): prominent increase
